Measured values published in publication PMC12516379, “Rotamer-Controlled Self-Immolative Linkers Enable Tunable Release of Neurosteroid Oxime Prodrugs” (ACS Medicinal Chemistry Letters, 2025).

Tests used:
[1] = Stability in acetate buffer pH 5.0 at room temperature via HPLC (UV); assay type: physicochemical
Protocol: (§1) Stability studies were conducted in PBS and acetate buffer utilizing high performance liquid chromatography for potential drug storage considerations. […]
(§2) All experiments were performed in duplicate and results are presented as the average of two experimental replicates.
(§3) 1.1 Aqueous Stability in PBS and Acetate Buffer via HPLC
(§4) Material and Instrumentation
(§5) HPLC grade acetonitrile (MeCN) […] HPLC grade water (H 2O), and formic acid (FA) were purchased from Fisher Scientific.
(§6) Puradisc 4 mm PTFE (0.45 μm) syringe filters from Cytiva. Gibco ® Dulbecco’s phosphate-buffered saline (DPBS 1X, no calcium, no magnesium, pH = 7.03) and acetate buffer (pH = 5.0, 10 mM) were purchased directly from Thermo Fisher Scientific and Cytiva, respectively.
(§7) Aqueous stability experiments were performed on an Agilent 1100 HPLC equipped with an Agilent G1315B diode array detector, an Agilent G1316A heated column compartment, and a Zorbax Eclipse XDB-C18 (4.6 x 150 mm, 5 μm) column.
(§8) Procedure for Aqueous Stability Experiments
(§9) Each sample was first weighed out in two separate 2.0 mL vials using an analytical balance.
(§10) Unless otherwise specified, the test compounds were then dissolved in the aqueous media (PBS or acetate buffer) at a standard concentration of 1 mg/mL. All mixtures were subsequently sonicated for approximately 30 sec. […]
(§11) min), precipitates observed in sample solutions were filtered with a PTFE syringe filter prior to analysis. Immediately after sample preparation, injection by the HPLC autosampler was performed, which was recorded as the initial time point (t = 0 min). Solutions were then kept in the autosampler at RT and reinjected at designated intervals without additional filtration or sample modification. Remaining prodrug was defined by the area under the curve (AUC) at 254 nm. Aqueous stability was ascertained by calculating the percentage of the parent compound remaining after each time point. Linear regression of the time (x-axis) vs. ln(%remaining) (y-axis) plot afforded the rate constant k (slope = -k). Pseudo first-order half-lives were then calculated by the following equation: t1/2 = 0.693/k.

[2] = Stability in PBS at room temperature via HPLC (UV); assay type: physicochemical; conditions: phosphate-buffered saline (DPBS)
Protocol: as §1, §2, §3, §4, §5, §6, §7, §8, §9, §10, §11

[3] = PBS stability assay at 37 °C via LC-MS/MS; assay type: physicochemical; conditions: for half-life at 3 µM / remaining at 2 h, 3 µM: phosphate-buffered saline (DPBS); for half-life at 3 µM: pH 7.03, PBS; for PBS, 37 °C %rem. at 2h (Table S23) / half-life at 3 µM / remaining at 2 h, 3 µM: 37 °C; for remaining at 2 h, 3 µM: pH 7.03, read-out: % Remaining @ 2h, PBS, 37 °C (Tables S25, S26)
Protocol: (§12) To address this, prodrug stability was further evaluated in human plasma at 37 °C using liquid chromatography–tandem mass spectrometry (LC-MS/MS). For direct comparison, a parallel screen was conducted in PBS under identical conditions (Table ). To prevent premature degradation prior to LC-MS/MS analysis, acetonitrile containing formic acid was used as a quenching solution to acidify and stabilize the prodrugs in vials. […] This limitation in detection, along with the need for a more uniform and broadly applicable assessment across all compounds, prompted us to monitor the formation of the parent oxime as an alternative readout.
(§13) Stability experiments in human plasma and PBS were performed via liquid chromatography-tandem mass spectrometry (LC-MS/MS) to determine and compare rate of cleavage of progesterone prodrugs as well as selected allopregnanolone prodrugs (3 µM) when incubated at 37 °C. All experiments were performed in duplicate and results are presented as the average of two experimental replicates.

[4] = Plasma stability assay at 37 °C via LC-MS/MS, human plasma; assay type: in vitro ADME; conditions: for half-life at 3 µM: human, plasma;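 as to all read-outs here: prodrugs at 3 µM incubated in human plasma at 37 °C, intact prodrug quantified by LC-MS/MS over time, values are means of duplicate runs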
Protocol: as §12, §13

[5] = Aqueous solubility by visual inspection in acetate buffer (pH 5); conditions: sodium acetate buffer
Protocol: For the solubility assessment, acetate buffer (pH 5) was selected as the media of choice to ensure prodrug stability during analysis.
High aqueous solubility was determined by visual inspection of 5 mg solid material in 0.5 mL
sodium acetate buffer solution. This media was selected to ensure stability of prodrugs during
dissolution in 50 mg/mL aqueous media.

[6] = pH 5, acetate buffer pH 5.0, RT, 1 mg/mL, HPLC 254 nm, read-out: t1/2 in acetate buffer at RT (Tables S5-S8) (converted)
[7] = pH 5, acetate buffer pH 5.0, rt, read-out: t½: pH 5.0, rt (Table S23) (converted)
[8] = pH 7.03, DPBS pH 7.03, RT, 1 mg/mL, HPLC 254 nm, read-out: t1/2 in PBS buffer at RT (Tables S1-S4) (converted)
[9] = pH 7.03, PBS, rt, read-out: t½: PBS, rt (Table S23) (converted)
[10] = 3 µM, LC-MS/MS, read-out: t1/2 in PBS at 37 °C (Tables S14-S17) (converted)
[11] = read-out: PBS, 37 °C t½ (Table S23) (converted)
[12] = read-out: t1/2 (h) PBS, 37 °C (Tables S25, S26) (converted)
[13] = 3 µM, LC-MS/MS, read-out: t1/2 in human plasma at 37 °C (Tables S10-S13, S18) (converted)
[14] = read-out: Plasma, 37 °C t½ (Table S23) (converted)
[15] = pH 5, aqueous buffer, thermodynamic from solid
[16] = pH 5, acetate buffer pH 5.0, rt, HPLC (UV), read-out: Half-life (t½) pH 5.0 rt (converted)
[17] = pH 7.03, PBS, rt, HPLC (UV), read-out: Half-life (t½) PBS rt (converted)
[18] = LC-MS/MS, read-out: Half-life (t½) PBS 37°C (converted)
[19] = LC-MS/MS, read-out: Half-life (t½) Plasma 37°C (converted)

| SMILES | half-life at 1 mg/mL [1, 6] [h] | half-life at 1 mg/mL [1, 7] [h] | half-life at 1 mg/mL [2, 8] [h] | half-life at 1 mg/mL [2, 9] [h] | PBS, 37 °C %rem. at 2h (Table S23) ([3]; PBS) [%] | half-life at 3 µM [3, 10] [h] | half-life at 3 µM [3, 11] [h] | half-life at 3 µM [3, 12] [h] | remaining at 2 h, 3 µM ([3]; PBS) [%] | Plasma, 37 °C %rem. at 2h (Table S23) [4] [%] | half-life at 3 µM [4, 13] [h] | half-life at 3 µM [4, 14] [h] | solubility [5, 15] [µg/mL] | half-life at 1 mg/mL [1, 16] [h] | half-life at 1 mg/mL [2, 17] [h] | half-life at 3 µM [3, 18] [h] | half-life at 3 µM [4, 19] [h] | half-life at 1 mg/mL ([1]; pH 5, acetate buffer pH 5.0, RT, HPLC 254 nm, read-out: t1/2 in acetate buffer at RT) [h] | Prodrug stability / self-immolation in buffer, in words ([3]; PBS) | solubility ([5]; pH 5) [µg/mL] |
| --- | --- | --- | --- | --- | --- | --- | --- | --- | --- | --- | --- | --- | --- | --- | --- | --- | --- | --- | --- | --- |
| CNCCN(CC(C)C)C(=O)O/N=C(\C)[C@H]1CC[C@H]2[C@@H]3CCC4=CC(=O)CC[C@]4(C)[C@H]3CC[C@]12C.O=C(O)C(F)(F)F [20f] | > 168 | > 168 | 50.7 ± 5.11 | > 24 | 55 | 5.07 | 5.07 | 5.07 | 55 | 95 | 4.78 | 4.78 | > 10000 |  |  |  |  |  |  |  |
| CNCCN(CCCN1CCOCC1)C(=O)O/N=C(\C)[C@H]1CC[C@H]2[C@@H]3CCC4=CC(=O)CC[C@]4(C)[C@H]3CC[C@]12C.O=C(O)C(F)(F)F [20i] | > 168 | > 168 | 31.2 ± 1.48 | 31.2 | 77 | 5.45 | 5.45 | 5.45 | 77 | 57 | 2.09 | 2.09 | > 10000 |  |  |  |  |  |  |  |
| CNCCN(CCn1ccnc1)C(=O)O/N=C(\C)[C@H]1CC[C@H]2[C@@H]3CCC4=CC(=O)CC[C@]4(C)[C@H]3CC[C@]12C [20k] | > 168 | > 168 | 47 ± 2.84 | 47 | 70 | 5.99 | 5.99 | 5.99 | 70 | 68 | 3.16 | 3.16 | > 10000 |  |  |  |  |  |  |  |
| C/C(=N\OC(=O)N(C)C[C@H]1CCCN1)[C@H]1CC[C@H]2[C@@H]3CCC4=CC(=O)CC[C@]4(C)[C@H]3CC[C@]12C.O=C(O)C(F)(F)F [20m] | > 168 | > 168 | 6.15 ± 0.02 | 6.15 | 11 | 0.8 | 0.8 |  |  | 2 | 0.35 | 0.35 | > 10000 |  |  |  |  |  |  |  |
| C/C(=N\OC(=O)N(C)C[C@@H]1CCN1)[C@H]1CC[C@H]2[C@@H]3CCC4=CC(=O)CC[C@]4(C)[C@H]3CC[C@]12C [20o] | > 168 | > 168 | 6.3 ± 0.09 | 6.3 | 14 | 0.9 | 0.9 |  |  | 1 | 0.29 | 0.29 | > 10000 | > 168 | 6.3 | 0.9 | 0.29 |  |  |  |
| C/C(=N\OC(=O)N(C)C[C@@H]1CC2(CC2)CN1)[C@H]1CC[C@H]2[C@@H]3CCC4=CC(=O)CC[C@]4(C)[C@H]3CC[C@]12C [20q] | > 168 | > 168 | 4.35 | 4.35 | 5 | 0.7 | 0.7 |  |  | 15 | 0.65 | 0.65 | > 10000 | > 168 | 4.35 | 0.7 | 0.64 |  |  |  |
| C/C(=N\OC(=O)N(C)C[C@@H]1C[C@H](N(C)C)CN1)[C@H]1CC[C@H]2[C@@H]3CCC4=CC(=O)CC[C@]4(C)[C@H]3CC[C@]12C [20u] | 72 | 72 | 7.53 ± 1.3 | 7.53 |  | 1.08 | 1.08 |  |  | 17 | 0.74 | 0.74 | > 10000 | 72 | 7.53 | 1.08 | 0.73 |  |  |  |
| C/C(=N\OC(=O)N(CCN(C)C)CCN(C)C)[C@H]1CC[C@H]2[C@@H]3CCC4=CC(=O)CC[C@]4(C)[C@H]3CC[C@]12C [20y] |  |  | 0.017 ± 0.002 | 0.02 | 35 | 1.87 | 1.87 |  |  | 84 | 8.88 | 8.88 |  |  |  |  |  | 0.1322 ± 0.00117 | hydrolytic instability | < 10000 |
| C/C(=N\OC(=O)N(CCO)CCNCCO)[C@H]1CC[C@H]2[C@@H]3CCC4=CC(=O)CC[C@]4(C)[C@H]3CC[C@]12C.Cl [20z] | > 168 | > 168 | 28.8 ± 3.16 | 28.8 | 78 | 6.27 | 6.27 |  |  | 71 | 2.3 | 2.3 | > 10000 |  |  |  |  |  |  |  |
